Numbering of substitutions follows the chain as printed. Like-named read-outs stand apart in the source and are kept apart here.
Legend:
Drg1 [1] = target: T1, Drg1 (Saccharomyces cerevisiae, UniProt P32794, K563A); assay: differential scanning fluorimetry; type: binding
T1 construct: gene AFG2; full-length type II AAA-ATPase, N-terminal GST-tag with PreScission site (plasmids derived from pAZ7), expressed in yeast from CUP1 promoter; Walker A mutants KA1 (K292A) and KA2 (K563A); hexamer in presence of nucleotide
T1 sequence (P32794 1-780 K563A): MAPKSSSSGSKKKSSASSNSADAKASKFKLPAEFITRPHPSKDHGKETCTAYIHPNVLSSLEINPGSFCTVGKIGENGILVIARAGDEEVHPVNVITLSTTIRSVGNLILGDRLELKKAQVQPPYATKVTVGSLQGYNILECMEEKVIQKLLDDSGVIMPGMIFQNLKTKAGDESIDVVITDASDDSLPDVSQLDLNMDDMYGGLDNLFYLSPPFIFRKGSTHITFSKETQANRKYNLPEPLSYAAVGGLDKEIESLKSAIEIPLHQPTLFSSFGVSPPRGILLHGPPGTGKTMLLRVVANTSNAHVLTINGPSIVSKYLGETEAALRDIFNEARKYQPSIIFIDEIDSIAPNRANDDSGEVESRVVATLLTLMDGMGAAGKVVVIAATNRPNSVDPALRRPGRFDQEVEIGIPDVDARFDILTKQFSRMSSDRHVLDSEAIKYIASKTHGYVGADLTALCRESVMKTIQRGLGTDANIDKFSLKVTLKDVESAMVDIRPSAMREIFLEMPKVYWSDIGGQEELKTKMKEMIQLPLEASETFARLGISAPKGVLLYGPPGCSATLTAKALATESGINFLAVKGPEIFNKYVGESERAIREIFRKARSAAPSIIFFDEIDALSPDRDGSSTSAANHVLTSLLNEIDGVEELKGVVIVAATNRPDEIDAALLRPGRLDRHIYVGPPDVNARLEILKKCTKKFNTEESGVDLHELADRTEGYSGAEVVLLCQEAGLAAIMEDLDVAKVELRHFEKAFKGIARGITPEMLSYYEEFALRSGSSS

Drg1 [2] = target: T2, Drg1 (Saccharomyces cerevisiae, UniProt P32794, K292A); assay: differential scanning fluorimetry; type: binding; settings: read-out: Kd(ATP)
T2 construct: gene AFG2; full-length type II AAA-ATPase, N-terminal GST-tag with PreScission site (plasmids derived from pAZ7), expressed in yeast from CUP1 promoter; Walker A mutants KA1 (K292A) and KA2 (K563A); hexamer in presence of nucleotide
T2 sequence (P32794 1-780 K292A): T1 sequence (P32794 1-780 K563A) with K292A, A563K

Row | Kd (Drg1 [1]; read-out: Kd(ADP)) [µM] | Kd (Drg1 [2]) [µM] | Kd (Drg1 [1]; read-out: Kd(ATP)) [µM] | SMILES
1 | ~120 | – | – | Nc1ncnc2c1ncn2[C@@H]1O[C@H](COP(=O)(O)OP(=O)(O)O)[C@@H](O)[C@H]1O [ADP]
2 | – | ~80 | ~20 | Nc1ncnc2c1ncn2[C@@H]1O[C@H](COP(=O)(O)OP(=O)(O)OP(=O)(O)O)[C@@H](O)[C@H]1O [ATP]

From article PMC5356007, “A conserved inter-domain communication mechanism regulates the ATPase activity of the AAA-protein Drg1” (Scientific Reports, 2017)
